Tested on: angiogenesis genes in dermal microvascular endothelial cells
Experiment: Real time RT-PCR of angiogenesis gene expression during endothelial tube formation
Type: cell-based
Conditions: 1 μM SM, 24 hours

COc1cc2cc(c1Cl)N(C)C(=O)CC(OC(=O)C(C)C)C1(C)OC1C(C)C1CC(O)(NC(=O)O1)C(OC)/C=C/C=C(\C)C2 (centres unmarked) [compound 292222]
Log2 fold-change of gene expression: 1839: −0.1
Log2 fold-change of gene expression: 4247: 0.5
Log2 fold-change of gene expression: 5569: 1.5
Log2 fold-change of gene expression: 8131: 0.1
Log2 fold-change of gene expression: 9569: 0.2
Log2 fold-change of gene expression: 10988: 1.0
Log2 fold-change of gene expression: 23001: −0.8
Log2 fold-change of gene expression: 55332: 2.4
Log2 fold-change of gene expression: 57722: 0.0
Log2 fold-change of gene expression: 58488: 1.0
Log2 fold-change of gene expression: 90780: 0.1
Log2 fold-change of gene expression: 134265: −1.3
Log2 fold-change of gene expression: AKT1: 0.7
Log2 fold-change of gene expression: ANGPT1: 0.9
Log2 fold-change of gene expression: ANGPT2: −1.3
Log2 fold-change of gene expression: ANGPTL3: 0.6
Log2 fold-change of gene expression: ANGPTL4: 1.3
Log2 fold-change of gene expression: ANPEP: −0.6
Log2 fold-change of gene expression: ANTXR1: −0.2
Log2 fold-change of gene expression: APOE: −2.2
Log2 fold-change of gene expression: ARHGEF1: −0.9
Log2 fold-change of gene expression: Acvrl1: 0.0
Log2 fold-change of gene expression: Adcy4: −0.4
Log2 fold-change of gene expression: BAL1: 0.2
Log2 fold-change of gene expression: BMP1: 0.4
Log2 fold-change of gene expression: C1orf54: −0.1
Log2 fold-change of gene expression: CALD1: 0.6
Log2 fold-change of gene expression: CCL2: 0.9
Log2 fold-change of gene expression: CCL11: 0.2
Log2 fold-change of gene expression: CD248: 1.3
Log2 fold-change of gene expression: CDH5: −0.1
Log2 fold-change of gene expression: CENTD3: −0.5
Log2 fold-change of gene expression: CLIC1: 6.6
Log2 fold-change of gene expression: COL4A3: 2.0
Log2 fold-change of gene expression: COL18A1: 1.2
Log2 fold-change of gene expression: COMT: −0.2
Log2 fold-change of gene expression: CST4: 0.8
Log2 fold-change of gene expression: CTTNBP2NL: 0.2
Log2 fold-change of gene expression: CXCL3: 5.0
Log2 fold-change of gene expression: CXCL5: 3.4
Log2 fold-change of gene expression: CXCL6: 0.4
Log2 fold-change of gene expression: CXCL9: 0.4
Log2 fold-change of gene expression: CXCL10: 0.8
Log2 fold-change of gene expression: Calcr1: −1.1
Log2 fold-change of gene expression: Caskin2: −6.7
Log2 fold-change of gene expression: Ccbp2: 0.4
Log2 fold-change of gene expression: Cldn5: −0.1
Log2 fold-change of gene expression: DGKG: 2.9
Log2 fold-change of gene expression: DKK3: −1.1
Log2 fold-change of gene expression: DLL4: −2.2
Log2 fold-change of gene expression: DUT: −0.4
Log2 fold-change of gene expression: EFNA1: 0.9
Log2 fold-change of gene expression: EFNA3: 0.1
Log2 fold-change of gene expression: EFNB2: −2.2
Log2 fold-change of gene expression: EGF: 2.8
Log2 fold-change of gene expression: ENG: −0.9
Log2 fold-change of gene expression: EPHB4: −0.5
Log2 fold-change of gene expression: EREG: 5.0
Log2 fold-change of gene expression: ESAM1: −1.1
Log2 fold-change of gene expression: EXTL3: 0.8
Log2 fold-change of gene expression: Egf17: −1.2
Log2 fold-change of gene expression: Ehd4: −1.4
Log2 fold-change of gene expression: Entpd1: −5.5
Log2 fold-change of gene expression: Epas1: −1.7
Log2 fold-change of gene expression: EphB1: 0.9
Log2 fold-change of gene expression: Erg: 3.7
Log2 fold-change of gene expression: FGF1: −1.4
Log2 fold-change of gene expression: FGF2: −0.6
Log2 fold-change of gene expression: FGFR3: 0.8
Log2 fold-change of gene expression: FIGF: 0.1
Log2 fold-change of gene expression: FLT1: −0.2
Log2 fold-change of gene expression: Fgd5: −0.8
Log2 fold-change of gene expression: GPCR124: −1.9
Log2 fold-change of gene expression: GRRP1: 0.1
Log2 fold-change of gene expression: Grp116: −4.4
Log2 fold-change of gene expression: HAND2: 1.0
Log2 fold-change of gene expression: HGF: 1.3
Log2 fold-change of gene expression: HIF1A: −0.7
Log2 fold-change of gene expression: HPSE: 1.6
Log2 fold-change of gene expression: Hspa12b: −2.2
Log2 fold-change of gene expression: ID1: 0.0
Log2 fold-change of gene expression: ID3: −0.2
Log2 fold-change of gene expression: IFNA1: 0.8
Log2 fold-change of gene expression: IFNB1: 1.1
Log2 fold-change of gene expression: IFNG: 3.1
Log2 fold-change of gene expression: IGF1: 6.0
Log2 fold-change of gene expression: IL1B: 4.3
Log2 fold-change of gene expression: IL6: 3.0
Log2 fold-change of gene expression: IL8: 13.9
Log2 fold-change of gene expression: ITGAV: 1.2
Log2 fold-change of gene expression: ITGB3: 2.5
Log2 fold-change of gene expression: Icam1: 0.5
Log2 fold-change of gene expression: Icam2: 0.1
Log2 fold-change of gene expression: JAG1: 1.6
Log2 fold-change of gene expression: KDR: −1.2
Log2 fold-change of gene expression: Kifc1: 0.5
Log2 fold-change of gene expression: LAMAS5: −0.4
Log2 fold-change of gene expression: LECT1: 1.4
Log2 fold-change of gene expression: LEP: −0.6
Log2 fold-change of gene expression: Lasts2: 0.1
Log2 fold-change of gene expression: Lrrk1: −0.1
Log2 fold-change of gene expression: MDK: 0.8
Log2 fold-change of gene expression: MMP2: 2.8
Log2 fold-change of gene expression: MMP9: 3.3
Log2 fold-change of gene expression: MMP11: 0.1
Log2 fold-change of gene expression: MRC2: 0.6
Log2 fold-change of gene expression: Mmm2: −1.0
Log2 fold-change of gene expression: Myo1b: −1.5
Log2 fold-change of gene expression: NID1: −2.5
Log2 fold-change of gene expression: NM023516: 0.4
Log2 fold-change of gene expression: NRP1: 0.8
Log2 fold-change of gene expression: NRP2: 1.0
Log2 fold-change of gene expression: Notch4: −0.4
Log2 fold-change of gene expression: Npr3: 0.9
Log2 fold-change of gene expression: PALD: 1.8
Log2 fold-change of gene expression: PDCD2: 0.2
Log2 fold-change of gene expression: PDGFA: 1.6
Log2 fold-change of gene expression: PECAM1: −0.7
Log2 fold-change of gene expression: PGF: 0.6
Log2 fold-change of gene expression: PLAU: 2.7
Log2 fold-change of gene expression: PLG: −0.7
Log2 fold-change of gene expression: PNMT: 0.1
Log2 fold-change of gene expression: PROK2: 1.9
Log2 fold-change of gene expression: PTGS1: 2.0
Log2 fold-change of gene expression: PTPRCAP: 0.1
Log2 fold-change of gene expression: Pltp: 0.4
Log2 fold-change of gene expression: Ptprb: 0.3
Log2 fold-change of gene expression: Ptprm: −0.1
Log2 fold-change of gene expression: RAMP2: −0.6
Log2 fold-change of gene expression: RASD2: 0.3
Log2 fold-change of gene expression: Rasip1: −0.3
Log2 fold-change of gene expression: S1PR1: −0.3
Log2 fold-change of gene expression: SERPINF1: 2.3
Log2 fold-change of gene expression: SPHK1: 2.0
Log2 fold-change of gene expression: STAB1: 0.2
Log2 fold-change of gene expression: Sdc4: 0.7
Log2 fold-change of gene expression: Sdpr: −4.9
Log2 fold-change of gene expression: Slc43a3: 1.0
Log2 fold-change of gene expression: Slco2a1: −5.3
Log2 fold-change of gene expression: TEK: 2.0
Log2 fold-change of gene expression: TGFA: −3.4
Log2 fold-change of gene expression: TGFB1: 1.1
Log2 fold-change of gene expression: TGFB2: 1.9
Log2 fold-change of gene expression: TGFBR1: 1.8
Log2 fold-change of gene expression: THBS1: 1.1
Log2 fold-change of gene expression: THBS2: 1.9
Log2 fold-change of gene expression: THY1: −8.0
Log2 fold-change of gene expression: TIMP1: 1.6
Log2 fold-change of gene expression: TIMP2: 1.1
Log2 fold-change of gene expression: TIMP3: −0.4
Log2 fold-change of gene expression: TNF: 1.0
Log2 fold-change of gene expression: TNS1: −0.3
Log2 fold-change of gene expression: TNS3: 0.5
Log2 fold-change of gene expression: TRA2B: −0.6
Log2 fold-change of gene expression: TYMP: −0.1
Log2 fold-change of gene expression: VEGFA: 3.2
Log2 fold-change of gene expression: VEGFC: 2.7
Log2 fold-change of gene expression: VGLL4: −0.8
Log2 fold-change of gene expression: Vwf: −3.3
Log2 fold-change of gene expression: copa: 0.2
Log2 fold-change of gene expression: itbp4: 0.1
Log2 fold-change of gene expression: ralb: −0.4
Log2 fold-change of gene expression: stard9: 0.8
Log2 fold-change of gene expression: B2M (1st listing (r49)): −0.4
Log2 fold-change of gene expression: HPRT1 (1st listing (r50)): 0.3
Log2 fold-change of gene expression: RPL13A (1st listing (r51)): 0.7
Log2 fold-change of gene expression: GADPH (1st listing (r52)): −0.1
Log2 fold-change of gene expression: ACTB (1st listing (r53)): −0.8
Log2 fold-change of gene expression: PLXDC1 (1st listing (r74)): −0.1
Log2 fold-change of gene expression: TNFAIP2 (1st listing (r91)): 0.6
Log2 fold-change of gene expression: Robo4 (1st listing (r95)): 1.1
Log2 fold-change of gene expression: 151516 (1st listing (r134)): 0.7
Log2 fold-change of gene expression: TNFAIP2 (2nd listing (r92)): 0.2
Log2 fold-change of gene expression: B2M (2nd listing (r97)): 1.3
Log2 fold-change of gene expression: HPRT1 (2nd listing (r98)): 1.4
Log2 fold-change of gene expression: RPL13A (2nd listing (r99)): 1.7
Log2 fold-change of gene expression: GADPH (2nd listing (r100)): 1.4
Log2 fold-change of gene expression: ACTB (2nd listing (r101)): −6.3
Log2 fold-change of gene expression: PLXDC1 (2nd listing (r104)): 0.3
Log2 fold-change of gene expression: 151516 (2nd listing (r139)): 0.7
Log2 fold-change of gene expression: Robo4 (2nd listing (r188)): 0.0
Log2 fold-change of gene expression: B2M (3rd listing (r145)): 0.0
Log2 fold-change of gene expression: HPRT1 (3rd listing (r146)): 0.2
Log2 fold-change of gene expression: RPL13A (3rd listing (r147)): 0.3
Log2 fold-change of gene expression: GADPH (3rd listing (r148)): −0.1
Log2 fold-change of gene expression: ACTB (3rd listing (r149)): −0.9
Log2 fold-change of gene expression: B2M (4th listing (r193)): 0.6
Log2 fold-change of gene expression: HPRT1 (4th listing (r194)): 0.4
Log2 fold-change of gene expression: RPL13A (4th listing (r195)): 1.2
Log2 fold-change of gene expression: GADPH (4th listing (r196)): −0.2
Log2 fold-change of gene expression: ACTB (4th listing (r197)): −0.6

Reference: patent US9504729B2, “Antiangiogenic small molecules and methods of use” (The United States of America, as represented by the …, priority 2009, dated 2016)
